Data reported in patent US20120082658A1, “Methods for the Treatment of Allergic Diseases” (VentiRx Pharmaceuticals, Inc., priority 2010, published 2012).

Assays:
Type in all cases: cell-based
[1] = target: T1, TLR6 (Homo sapiens, UniProt Q9Y2C9); experiment: HEK293 cells transfected with human TLR6, NF-κB driven reporter; details: concentration up to 25 uM
T1 construct: expressed in transfected cells; host or cells: HEK293
T1 sequence (Q9Y2C9 32-796): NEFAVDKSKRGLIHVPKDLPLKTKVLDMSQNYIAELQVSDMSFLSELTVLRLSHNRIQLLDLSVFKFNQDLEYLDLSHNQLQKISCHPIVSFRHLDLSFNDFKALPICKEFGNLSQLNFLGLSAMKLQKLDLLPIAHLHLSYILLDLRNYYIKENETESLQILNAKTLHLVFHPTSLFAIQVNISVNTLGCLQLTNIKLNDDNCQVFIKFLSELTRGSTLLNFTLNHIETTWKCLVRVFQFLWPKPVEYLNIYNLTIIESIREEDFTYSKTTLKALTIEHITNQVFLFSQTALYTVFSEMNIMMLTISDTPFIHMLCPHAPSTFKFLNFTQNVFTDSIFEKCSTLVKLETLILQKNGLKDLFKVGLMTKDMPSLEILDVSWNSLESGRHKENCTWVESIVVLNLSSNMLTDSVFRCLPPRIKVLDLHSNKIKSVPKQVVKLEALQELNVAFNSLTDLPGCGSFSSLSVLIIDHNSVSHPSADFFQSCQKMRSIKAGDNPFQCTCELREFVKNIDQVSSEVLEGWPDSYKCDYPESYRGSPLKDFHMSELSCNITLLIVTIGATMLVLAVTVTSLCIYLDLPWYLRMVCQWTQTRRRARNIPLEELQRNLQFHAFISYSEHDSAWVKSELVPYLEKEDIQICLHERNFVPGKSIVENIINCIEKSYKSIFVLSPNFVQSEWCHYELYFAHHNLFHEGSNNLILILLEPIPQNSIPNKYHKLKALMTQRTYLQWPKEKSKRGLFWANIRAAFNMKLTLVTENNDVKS
Experimental: (§1) FIG. 8 is two graphs depicting the potency and selectivity of VTX-378 for TLR8. The half-maximal effective concentration (EC50) for VTX-378 activation of TLR8 and TLR7 was assessed in peripheral blood mononuclear cells (PBMCs) by the amount of secreted TNFα (A) and by the activity of NF-κB (B) from 15 healthy donors and also in HEK293 cells transfected with various human TLRs.
(§2) Preclinical studies were performed with VTX-378, the active pharmaceutical ingredient in VTX-1463. The specificity of VTX-378 for human TLR8 relative to other TLRs was assessed in transfected Human Embryonic Kidney 293 (HEK293) cells engineered to express individual TLRs (2-9) via transfection, and assessed using an NF-κB driven reporter system. […] The pharmacologic effects of VTX-378 were characterized in vitro using isolated human peripheral blood mononuclear cells (PBMCs).

[2] = target: T2, TLR2 (Homo sapiens, UniProt O60603); experiment: HEK293 cells transfected with human TLR2, NF-κB driven reporter; details: concentration up to 25 uM
T2 construct: expressed in transfected cells; host or cells: HEK293
Experimental: as §1, §2

[3] = target: T3, TLR9 (Homo sapiens, UniProt Q9NR96); experiment: HEK293 cells transfected with human TLR9, NF-κB driven reporter; details: concentration up to 25 uM
T3 construct: expressed in transfected cells; host or cells: HEK293
T3 sequence (Q9NR96 26-1032): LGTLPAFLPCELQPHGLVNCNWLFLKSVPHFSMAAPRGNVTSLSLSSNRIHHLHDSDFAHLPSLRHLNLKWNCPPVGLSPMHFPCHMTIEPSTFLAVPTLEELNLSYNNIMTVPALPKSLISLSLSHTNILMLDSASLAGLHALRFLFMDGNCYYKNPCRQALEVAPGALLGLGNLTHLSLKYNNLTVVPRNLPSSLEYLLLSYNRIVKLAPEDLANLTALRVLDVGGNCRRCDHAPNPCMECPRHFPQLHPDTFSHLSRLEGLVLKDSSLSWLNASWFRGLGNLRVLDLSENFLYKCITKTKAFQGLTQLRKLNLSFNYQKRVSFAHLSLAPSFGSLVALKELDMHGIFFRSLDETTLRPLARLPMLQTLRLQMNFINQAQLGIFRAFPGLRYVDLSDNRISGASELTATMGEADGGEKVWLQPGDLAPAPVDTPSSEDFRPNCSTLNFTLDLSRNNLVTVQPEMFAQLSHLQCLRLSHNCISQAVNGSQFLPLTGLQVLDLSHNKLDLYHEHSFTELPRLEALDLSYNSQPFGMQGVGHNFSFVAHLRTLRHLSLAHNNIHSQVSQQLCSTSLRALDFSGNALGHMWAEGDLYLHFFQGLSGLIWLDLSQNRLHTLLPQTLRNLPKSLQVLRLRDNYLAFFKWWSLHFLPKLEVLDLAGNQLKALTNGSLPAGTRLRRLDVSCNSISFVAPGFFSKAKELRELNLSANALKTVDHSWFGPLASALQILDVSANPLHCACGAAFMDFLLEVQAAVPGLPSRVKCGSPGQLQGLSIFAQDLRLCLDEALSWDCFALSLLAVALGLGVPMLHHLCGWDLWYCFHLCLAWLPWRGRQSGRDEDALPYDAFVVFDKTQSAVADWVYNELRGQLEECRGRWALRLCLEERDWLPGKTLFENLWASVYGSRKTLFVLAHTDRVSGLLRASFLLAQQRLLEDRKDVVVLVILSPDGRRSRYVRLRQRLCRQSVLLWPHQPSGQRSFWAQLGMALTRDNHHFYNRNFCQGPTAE
Experimental: as §1, §2

[4] = system: human whole blood; experiment: Co-culture of human whole blood, IL-12 and IL-10 production
Excerpt: FIG. 9 is two graphs depicting that VTX-378 stimulates production of IL-12 and IL-10.

[5] = target: T4, TLR5 (Homo sapiens, UniProt O60602); experiment: HEK293 cells transfected with human TLR5, NF-κB driven reporter; details: concentration up to 25 uM
T4 construct: expressed in transfected cells; host or cells: HEK293
Experimental: as §1, §2

T4 sequence (O60602 21-858): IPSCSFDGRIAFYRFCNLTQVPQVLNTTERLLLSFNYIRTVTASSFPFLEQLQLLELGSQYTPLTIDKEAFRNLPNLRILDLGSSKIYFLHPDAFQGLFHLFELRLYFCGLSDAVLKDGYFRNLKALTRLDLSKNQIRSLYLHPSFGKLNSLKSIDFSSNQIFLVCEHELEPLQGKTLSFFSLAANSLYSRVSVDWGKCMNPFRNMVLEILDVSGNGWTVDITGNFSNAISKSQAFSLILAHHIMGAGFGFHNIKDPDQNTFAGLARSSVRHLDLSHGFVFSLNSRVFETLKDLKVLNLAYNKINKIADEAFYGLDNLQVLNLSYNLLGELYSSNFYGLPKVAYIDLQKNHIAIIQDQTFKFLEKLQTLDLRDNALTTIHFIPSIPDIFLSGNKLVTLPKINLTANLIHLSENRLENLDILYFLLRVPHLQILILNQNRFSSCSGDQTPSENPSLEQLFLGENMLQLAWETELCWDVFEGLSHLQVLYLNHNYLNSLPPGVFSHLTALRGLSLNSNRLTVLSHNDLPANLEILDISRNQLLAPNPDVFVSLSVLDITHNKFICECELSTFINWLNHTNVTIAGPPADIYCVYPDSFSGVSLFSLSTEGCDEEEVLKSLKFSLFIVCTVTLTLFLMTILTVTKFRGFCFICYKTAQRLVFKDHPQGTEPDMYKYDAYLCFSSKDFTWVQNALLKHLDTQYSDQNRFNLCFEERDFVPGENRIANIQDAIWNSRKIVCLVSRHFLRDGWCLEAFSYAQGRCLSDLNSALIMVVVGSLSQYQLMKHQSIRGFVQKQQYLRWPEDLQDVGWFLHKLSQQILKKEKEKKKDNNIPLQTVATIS
T2 sequence (O60603 21-784): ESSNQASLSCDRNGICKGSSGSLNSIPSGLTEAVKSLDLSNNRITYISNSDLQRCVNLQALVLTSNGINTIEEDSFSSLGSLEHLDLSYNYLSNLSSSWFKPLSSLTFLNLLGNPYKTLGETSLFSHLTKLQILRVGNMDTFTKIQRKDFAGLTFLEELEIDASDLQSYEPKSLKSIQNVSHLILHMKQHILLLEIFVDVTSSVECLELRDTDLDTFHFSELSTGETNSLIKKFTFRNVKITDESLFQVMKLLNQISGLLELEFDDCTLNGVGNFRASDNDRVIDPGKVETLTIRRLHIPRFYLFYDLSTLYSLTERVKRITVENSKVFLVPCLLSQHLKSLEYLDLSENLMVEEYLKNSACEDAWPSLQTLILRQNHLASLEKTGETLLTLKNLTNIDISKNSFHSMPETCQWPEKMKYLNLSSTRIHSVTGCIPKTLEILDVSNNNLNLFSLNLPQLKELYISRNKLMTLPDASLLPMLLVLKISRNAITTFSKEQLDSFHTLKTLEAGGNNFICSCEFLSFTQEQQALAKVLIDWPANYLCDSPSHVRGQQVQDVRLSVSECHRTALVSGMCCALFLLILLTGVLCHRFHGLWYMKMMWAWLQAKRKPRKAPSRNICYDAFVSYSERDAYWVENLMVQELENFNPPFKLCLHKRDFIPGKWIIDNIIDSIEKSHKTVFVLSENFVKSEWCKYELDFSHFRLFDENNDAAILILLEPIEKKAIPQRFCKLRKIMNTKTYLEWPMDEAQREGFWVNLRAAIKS

- activity on TLR6 [1]: no detectable activity
- activity on TLR2 [2]: no detectable activity
- activity on TLR9 [3]: no detectable activity
- activity on TLR5 [5]: no detectable activity
SMILES: CCCN(CCC)C(=O)C1=Cc2ccc(-c3ccc(C(=O)N4CCCC4)cc3)cc2N=C(N)C1 [VTX-378]
- production of IL-10 [4]: dose dependent increase
- production of IL-12 [4]: dose dependent increase
